Assay results from US8431567B2 (Abbott GmbH & Co. KG, priority 2006, dated 2013).
Structures can show the parent of a compound that is named as a salt.

target: T1, human vasopressin V1b receptor (Homo sapiens, UniProt P47901); assay: Vasopressin V1b receptor binding test; settings: membranes of CHO-K1 cells, displacement of 1.5 nM 3H-AVP
T1 construct: expressed in transfected cells; host or cells: CHO-K1 (cell line hV1b_3H2_CHO), membrane preparation
T1 sequence (P47901 1-424): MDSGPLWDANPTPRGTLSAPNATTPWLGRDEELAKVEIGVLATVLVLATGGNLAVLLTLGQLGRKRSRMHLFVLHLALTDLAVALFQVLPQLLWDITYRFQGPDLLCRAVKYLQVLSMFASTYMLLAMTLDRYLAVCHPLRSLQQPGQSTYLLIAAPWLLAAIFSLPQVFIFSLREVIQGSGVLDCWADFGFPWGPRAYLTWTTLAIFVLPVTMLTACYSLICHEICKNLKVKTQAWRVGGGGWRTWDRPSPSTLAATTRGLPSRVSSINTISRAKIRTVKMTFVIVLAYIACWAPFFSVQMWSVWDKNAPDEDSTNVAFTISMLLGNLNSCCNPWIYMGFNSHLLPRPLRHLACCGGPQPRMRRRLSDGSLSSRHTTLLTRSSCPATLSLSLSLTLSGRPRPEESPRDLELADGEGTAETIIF
Protocol: • Vasopressin V1b Receptor Binding Test: • Substances:
The test substances were dissolved at a concentration of 10^−2 M in DMSO and diluted further in DMSO to 5×10^−4 M to 5×10^−9 M. These DMSO solutions were diluted 1:10 with test buffer. The concentration of substance was again diluted 1:5 in the test preparation.
The membrane pellet was homogenized and centrifuged again as described, and then taken up in 50 mM Tris-HCl, pH 7.4, homogenized and, frozen in aliquots, stored at −190° C. in liquid nitrogen.
The incubation buffer was: 50 mM Tris, 10 mM MgCl2, 0.1% BSA, pH 7.4. […] The nonspecific binding was determined with 1 μM AVP (Bachem #H1780). All determinations were performed in triplicate. After incubation (60 minutes at room temperature), the free radioligand was filtered off by vacuum filtration (Skatron cell harvester 7000) on Whatman GF/B glass-fibre filter mats and the filters were transferred to scintillation vessels. Liquid scintillation measurement was performed in a Tricarb instrument, Model 2000 or 2200CA (Packard). Conversion of the measured cpm to dpm was performed with the aid of a standard quench series.
The binding parameters were calculated by nonlinear regression in SAS.
For the compounds according to the invention, the affinities for the human vasopressin receptor V1b were measured according to the above test and the affinity constant (Ki) was determined.

Row | SMILES | Ki
1 | COc1ccc(S(=O)(=O)N2C(=O)C(c3cc(C)ccc3OC)(N3CCN(c4ccncc4)CC3)c3cc(C#N)ccc32)c(OC)c1 (racemic) [Example 67, (±)-5-Cyano-1-(2,4-dimethoxy-benzenesulphonyl)-3-(2-methoxy-5-methylphenyl)-3-(4-pyridin-4-yl-piperazin-1-yl)-2,3-dihydro-1H-indol-2-one×trifluoroacetic acid] | < 50 nM
2 | CCOc1ccccc1C1(N2CCN(c3ccncc3)CC2)C(=O)N(S(=O)(=O)c2ccc(F)cc2F)c2ccc(C#N)cc21 (racemic) [Example 72, (±)-5-Cyano-1-(2,4-difluoro-benzenesulphonyl)-3-(2-ethoxyphenyl)-3-(4-pyridin-4-yl-piperazin-1-yl)-2,3-dihydro-1H-indol-2-one trifluoroacetate] | 50 to 500 nM
3 | CCOc1ccccc1C1(N2CCN(C3CCN(C)CC3)CC2)C(=O)N(S(=O)(=O)c2ccc(OC)cc2OC)c2ccc(C#N)cc21 (racemic) [Example 76, (±)-5-Cyano-1-(2,4-dimethoxy-benzenesulphonyl)-3-(2-ethoxyphenyl)-3-[4-(1-methyl-piperidin-4-yl)-piperazin-1-yl]-2,3-dihydro-1H-indol-2-one] | 50 to 500 nM
4 | CCOc1ccc(S(=O)(=O)N2C(=O)C(c3ccccc3OCC)(N3CCN(c4ccncc4)CC3)c3cc(C#N)ccc32)c(OC)c1 (racemic) [Example 77, (±)-5-Cyano-1-(4-ethoxy-2-methoxy-benzenesulphonyl)-3-(2-ethoxyphenyl)-3-(4-pyridin-4-yl-piperazin-1-yl)-2,3-dihydro-1H-indol-2-one hydrochloride] | 50 to 500 nM
5 | CCOc1ccccc1C1(N2CCN(c3ccncc3)CC2)C(=O)N(S(=O)(=O)c2ccc(Cl)cc2F)c2ccc(C#N)cc21 (racemic) [Example 78, (±)-5-Cyano-1-(4-chloro-2-fluoro-benzenesulphonyl)-3-(2-ethoxyphenyl)-3-(4-pyridin-4-yl-piperazin-1-yl)-2,3-dihydro-1H-indol-2-one] | 50 to 500 nM
6 | CCOc1ccccc1C1(N2CCN(c3ccncc3)CC2)C(=O)N(S(=O)(=O)c2ccc(C(C)C)cc2)c2ccc(C#N)cc21 (racemic) [Example 81, (±)-5-Cyano-3-(2-ethoxyphenyl)-1-(4-isopropyl-benzenesulphonyl)-3-(4-pyridin-4-yl-piperazin-1-yl)-2,3-dihydro-1H-indol-2-one] | 50 to 500 nM
7 | CCOc1ccccc1C1(N2CCN(c3ccncc3)CC2)C(=O)N(S(=O)(=O)c2ccc(OC(F)F)cc2)c2ccc(C#N)cc21 (racemic) [Example 87, (±)-5-Cyano-1-(4-difluoromethoxy-benzenesulphonyl)-3-(2-ethoxyphenyl)-3-(4-pyridin-4-yl-piperazin-1-yl)-2,3-dihydro-1H-indol-2-one] | 50 to 500 nM
8 | CCOc1ccccc1C1(N2CCN(c3ccncc3)CC2)C(=O)N(S(=O)(=O)c2ccc(C(C)=O)cc2)c2ccc(C#N)cc21 (racemic) [Example 88, (±)-5-Cyano-1-(4-acetyl-benzenesulphonyl)-3-(2-ethoxyphenyl)-3-(4-pyridin-4-yl-piperazin-1-yl)-2,3-dihydro-1H-indol-2-one] | 50 to 500 nM
9 | CCOc1ccc(S(=O)(=O)N2C(=O)C(c3ccccc3OCC)(N3CCN(c4ccncc4)CC3)c3cc(C#N)ccc32)cc1 (racemic) [Example 89, (±)-5-Cyano-1-(4-ethoxy-benzenesulphonyl)-3-(2-ethoxyphenyl)-3-(4-pyridin-4-yl-piperazin-1-yl)-2,3-dihydro-1H-indol-2-one] | 50 to 500 nM
10 | CCOc1ccccc1C1(N2CCN(c3ccncc3)CC2)C(=O)N(S(=O)(=O)c2ccc(CC)cc2)c2ccc(C#N)cc21 (racemic) [Example 90, (±)-5-Cyano-3-(2-ethoxyphenyl)-1-(4-ethyl-benzenesulphonyl)-3-(4-pyridin-4-yl-piperazin-1-yl)-2,3-dihydro-1H-indol-2-one] | 50 to 500 nM
11 | CCOc1ccccc1C1(N2CCN(c3ccncc3)CC2)C(=O)N(S(=O)(=O)c2ccc([N+](=O)[O-])cc2OC)c2ccc(C#N)cc21 (racemic) [Example 91, (±)-5-Cyano-3-(2-ethoxyphenyl)-1-(2-methoxy-4-nitro-benzenesulphonyl)-3-(4-pyridin-4-yl-piperazin-1-yl)-2,3-dihydro-1H-indol-2-one] | 50 to 500 nM
12 | CCOc1ccc(OC)cc1C1(N2CCN(c3ccnc(C(C)C)c3)CC2)C(=O)N(S(=O)(=O)c2ccc(OC)cc2OC)c2ccc(C#N)cc21 (racemic) [Example 92, (±)-5-Cyano-1-(2,4-dimethoxy-benzenesulphonyl)-3-(2-ethoxy-5-methoxyphenyl)-3-[4-(2-isopropyl-pyridin-4-yl)-piperazin-1-yl]-2,3-dihydro-1H-indol-2-one] | < 50 nM

Continued, values first:

Row | Ki | SMILES
13 | 50 to 500 nM | COc1ccc(S(=O)(=O)N2C(=O)C(c3cc(F)ccc3OC)(N3CCN(c4ccncc4)CC3)c3cc(C#N)ccc32)c(OC)c1 (racemic) [Example 65, (±)-5-Cyano-1-(2,4-dimethoxy-benzenesulphonyl)-3-(5-fluoro-2-methoxyphenyl)-3-(4-pyridin-4-yl-piperazin-1-yl)-2,3-dihydro-1H-indol-2-one]
14 | 50 to 500 nM | CCOc1ccccc1C1(N2CCN(c3ccncc3)CC2)C(=O)N(S(=O)(=O)c2ccc(C#N)cc2F)c2ccc(C#N)cc21 (racemic) [Example 68, (±)-5-Cyano-1-(4-cyano-2-fluoro-benzenesulphonyl)-3-(2-ethoxyphenyl)-3-(4-pyridin-4-yl-piperazin-1-yl)-2,3-dihydro-1H-indol-2-one]
15 | 50 to 500 nM | CCOc1ccccc1C1(N2CCN(c3ccncc3)CC2)C(=O)N(S(=O)(=O)c2ccc(C(C)(C)C)cc2)c2ccc(C#N)cc21 (racemic) [Example 80, (±)-5-Cyano-1-(4-tert-butyl-benzenesulphonyl)-3-(2-ethoxyphenyl)-3-(4-pyridin-4-yl-piperazin-1-yl)-2,3-dihydro-1H-indol-2-one]
16 | 50 to 500 nM | CCOc1ccccc1C1(N2CCN(c3ccncc3)CC2)C(=O)N(S(=O)(=O)c2ccc(N)cc2)c2ccc(C#N)cc21 (racemic) [Example 84, (±)-5-Cyano-1-(4-amino-benzenesulphonyl)-3-(2-ethoxyphenyl)-3-(4-pyridin-4-yl-piperazin-1-yl)-2,3-dihydro-1H-indol-2-one]
17 | 50 to 500 nM | CCOc1ccccc1C1(N2CCN(c3ccncc3)CC2)C(=O)N(S(=O)(=O)c2ccc(C)cc2)c2ccc(C#N)cc21 (racemic) [Example 85, (±)-5-Cyano-3-(2-ethoxyphenyl)-3-(4-pyridin-4-yl-piperazin-1-yl)-1-(toluene-4-sulphonyl)-2,3-dihydro-1H-indol-2-one]
18 | 50 to 500 nM | CCOc1ccccc1C1(N2CCN(c3ccncc3)CC2)C(=O)N(S(=O)(=O)c2ccc(S(C)(=O)=O)cc2)c2ccc(C#N)cc21 (racemic) [Example 86, (±)-5-Cyano-3-(2-ethoxyphenyl)-1-(4-methanesulphonyl-benzenesulphonyl)-3-(4-pyridin-4-yl-piperazin-1-yl)-2,3-dihydro-1H-indol-2-one]
19 | < 50 nM | CCOc1ccccc1C1(N2CCN(c3ccnc(CC)c3)CC2)C(=O)N(S(=O)(=O)c2ccc(OC)cc2OC)c2ccc(C#N)cc21 (racemic) [Example 93, (±)-5-Cyano-1-(2,4-dimethoxy-benzenesulphonyl)-3-(2-ethoxyphenyl)-3-[4-(2-ethyl-pyridin-4-yl)-piperazin-1-yl]-2,3-dihydro-1H-indol-2-one]
